Assay results from patent US20120322824A1, “Cocaine Antagonist/Antidepressant Pharmaceutical Preparations” (priority 2011, published 2012).
Like-named read-outs stand apart in the source and are kept apart here.

Columns and labels:
[1] = test system: mice; assay: tail suspension test (TST); format: in vivo
Source text: Referring now to FIGS. 5a-d, the tail suspension test (TST) and forced swim test (FST) are well-established, prototypical rodent models of learned helplessness. […] These assays are based on the premise that helpless or “depressed” animals struggle less to escape the mild but inescapable stress of being suspended or being immersed in room temperature water. […] In the TST, standard laboratory tape is used to immobilize an animal by its tail to a fixed support approximately 10.5 inches above a surface. The duration of the test is six minutes during which time animal movement is videotaped and later scored for immobility time (in sec) by a blinded observer. Similarly, in the FST animals are immersed in approximately 10 cm of 25° C. water in a 20 cm×13 cm glass cylinder. Animals were tested for 5 min and behavior was videotaped and scored for immobility time (sec) by a blinded observer.

[2] = test system: mice; assay: conditioned place preference assay (CPP); format: in vivo
Procedure: The conditioned place preference assay (CPP) is one test commonly used to show the ability of an antagonist to block rewarding effects in mice. Referring now to FIGS. 1a-b, according to the CPP test mice are placed in an apparatus with two chambers that differ in both visual and tactile cues. Over the course of a one-week training period, a rewarding drug (e.g.—cocaine) is administered once daily exclusively in one chamber so as to allow animals to associate the cues of that chamber with the drug. Sterile water is administered once daily while the animals occupy the opposite chamber to control for non-drug effects. At the conclusion of the training period, animals are allowed free access to both chambers and the time spent in each chamber is measured electronically. It is well known that addictive substances increase the amount of time animals spend in the drug-paired chamber, in the absence of any intervention.
Moreover, additional testing was performed to control for effects of MI-4 on general behavioral activity, an essential consideration when interpreting results from locomotor-based behavioral paradigms such as the CPP test.

[3] = test system: rodents; settings: doses less than 100 mg/kg, i.p.; cited from earlier work
[4] = biological target: dopamine (DA) transporter (Homo sapiens, UniProt Q01959); assay: in vitro binding affinity, dopamine transporter; settings: in vitro studies
Chain of dopamine (DA) transporter (Q01959 whole entry): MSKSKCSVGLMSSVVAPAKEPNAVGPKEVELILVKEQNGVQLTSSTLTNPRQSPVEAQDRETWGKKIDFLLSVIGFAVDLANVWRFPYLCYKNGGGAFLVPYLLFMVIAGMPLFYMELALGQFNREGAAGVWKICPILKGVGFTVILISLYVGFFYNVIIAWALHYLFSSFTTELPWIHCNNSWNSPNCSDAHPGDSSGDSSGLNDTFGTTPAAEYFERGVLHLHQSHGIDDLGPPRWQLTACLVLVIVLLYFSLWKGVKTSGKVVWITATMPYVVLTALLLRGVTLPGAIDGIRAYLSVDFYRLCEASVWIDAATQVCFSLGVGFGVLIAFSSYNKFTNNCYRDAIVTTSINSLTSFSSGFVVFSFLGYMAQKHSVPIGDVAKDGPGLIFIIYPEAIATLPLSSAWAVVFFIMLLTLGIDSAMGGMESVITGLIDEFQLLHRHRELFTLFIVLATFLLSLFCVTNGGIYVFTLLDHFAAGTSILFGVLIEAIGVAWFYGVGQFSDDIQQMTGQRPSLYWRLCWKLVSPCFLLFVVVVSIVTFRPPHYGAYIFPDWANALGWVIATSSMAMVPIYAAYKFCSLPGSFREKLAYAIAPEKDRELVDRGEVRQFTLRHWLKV

[5] = test system: mice; assay: open field test, time spent in center; format: in vivo; settings: FIG. 3
Source text: Anxiety disorders are often co-morbid with depression and antidepressant drugs are used in the treatment of anxiety. Tests for anxiety in rodents, such as the open field test, make use of the aversion of the animals for exposed locations. Treatment with anxiolytics such as diazepam or fluoxetine increases the amount of time an animal will spend in the center of the open field. We used the Opto-Varimax 4 Activity Analyzer to assess the time animals spent in the center of the open field vs. the periphery after treatment with MI-4. Data were measured as time spent in center (TIC).

[6] = biological target: noreinephrine (NE) transporter (Homo sapiens, UniProt P23975); assay: in vitro binding affinity, norepinephrine transporter; settings: in vitro studies
Chain of noreinephrine (NE) transporter (P23975 whole entry): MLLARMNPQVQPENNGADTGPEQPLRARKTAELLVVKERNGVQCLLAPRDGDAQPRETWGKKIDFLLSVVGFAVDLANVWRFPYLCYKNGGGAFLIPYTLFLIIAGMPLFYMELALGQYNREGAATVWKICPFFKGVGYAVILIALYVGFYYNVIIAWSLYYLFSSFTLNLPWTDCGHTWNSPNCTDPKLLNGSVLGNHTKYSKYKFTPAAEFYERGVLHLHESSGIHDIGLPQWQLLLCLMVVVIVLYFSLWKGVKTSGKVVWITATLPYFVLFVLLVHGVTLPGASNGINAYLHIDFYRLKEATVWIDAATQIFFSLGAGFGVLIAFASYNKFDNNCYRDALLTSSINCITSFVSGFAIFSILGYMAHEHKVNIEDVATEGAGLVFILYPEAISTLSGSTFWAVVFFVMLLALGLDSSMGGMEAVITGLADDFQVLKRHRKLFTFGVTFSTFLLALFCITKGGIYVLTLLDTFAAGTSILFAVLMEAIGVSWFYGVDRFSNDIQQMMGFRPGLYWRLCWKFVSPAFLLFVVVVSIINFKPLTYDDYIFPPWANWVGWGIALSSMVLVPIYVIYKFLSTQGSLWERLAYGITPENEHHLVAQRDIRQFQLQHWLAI

[7] = biological target: serotonin (5-HT) transporter (Homo sapiens, UniProt P31645); assay: in vitro binding affinity, serotonin transporter; settings: in vitro studies
Chain of serotonin (5-HT) transporter (P31645 whole entry): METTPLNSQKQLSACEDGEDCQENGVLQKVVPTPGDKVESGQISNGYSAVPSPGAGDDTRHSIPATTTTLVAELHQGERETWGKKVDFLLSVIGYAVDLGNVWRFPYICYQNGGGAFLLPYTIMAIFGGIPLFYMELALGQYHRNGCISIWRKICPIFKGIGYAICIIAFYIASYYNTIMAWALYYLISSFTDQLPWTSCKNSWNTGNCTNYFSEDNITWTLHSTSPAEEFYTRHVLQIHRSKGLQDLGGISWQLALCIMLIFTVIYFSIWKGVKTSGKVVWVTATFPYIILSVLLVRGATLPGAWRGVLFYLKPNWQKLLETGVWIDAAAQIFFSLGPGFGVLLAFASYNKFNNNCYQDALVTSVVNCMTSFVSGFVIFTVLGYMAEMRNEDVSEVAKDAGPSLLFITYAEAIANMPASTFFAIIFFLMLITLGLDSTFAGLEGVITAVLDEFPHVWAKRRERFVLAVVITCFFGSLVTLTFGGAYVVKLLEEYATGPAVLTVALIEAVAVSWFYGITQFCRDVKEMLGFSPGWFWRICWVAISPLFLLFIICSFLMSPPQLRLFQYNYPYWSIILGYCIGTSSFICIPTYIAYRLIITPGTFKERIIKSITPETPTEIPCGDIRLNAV

[8] = test system: mice; assay: locomotor activity (Opto-Varimax 4 Activity Analyzer); format: in vivo
Procedure: Referring now to FIGS. 2a-d, locomotor activity was assessed in a non-invasive manner using a Opto-Varimax 4 Activity Analyzer (Columbus Instruments, Columbus, Ohio) that measures animal activity in a cage intersected with photocells projecting infrared beams 2.5 cm apart and 2 cm above the floor. After a brief habituation period, animals were treated with either sterile water as vehicle or MI-4 and activity was measured for 20 min.

[9] = human subjects, cited from earlier work
[10] = intravenous administration for up to 72 hours

## C[C@@H](CN1CCC(Cc2ccccc2)CC1)[C@@H](O)c1ccc(O)cc1 (relative stereo) [MI-4, ([R-(R*,S*)]-α-(4-Hydroxyphenyl)-β-methyl-4-(phenylmethyl)-1-piperidinepropanol]
[1]; six minute test, FIG. 5a, comparable in effect to fluovoxamine and desipramine
  immobility time in the TST: dose-dependent reduction in immobility time
[2]; MI-4 10/mg/kg i.p. co-administered with cocaine 10 mg/kg i.p., FIG. 1b
  effect of cocaine on time in drug-paired chamber when co-administered: reduced by half
[2]; administered alone at the same dose (10/mg/kg, i.p.)
  rewarding effects when administered alone (time spent in the MI-4-paired chamber): did not exhibit rewarding effects
[3]
  adverse effects (tolerability): no observable adverse effects
[4]
  binding affinity for the dopamine (DA) transporter: physiologically-relevant binding affinity
[5]; 10 mg/kg
  time in center in the open field: decreased time in center
[5]
  time spent in center (TIC) in the open field: did not significantly increase
[6]
  binding affinity for the noreinephrine (NE) transporter: physiologically-relevant binding affinity
[7]
  binding affinity for the serotonin (5-HT) transporter: physiologically-relevant binding affinity
[8]; MI-4 vs sterile water vehicle, 20 min, FIG. 2a
  distance traveled: only minor effects
[8]; MI-4 vs sterile water vehicle, 20 min, FIG. 2b
  ambulatory time: only minor effects
[8]; MI-4 vs sterile water vehicle, 20 min, FIG. 2c
  stereotopy time (grooming behavior): did not significantly alter
[8]; MI-4 vs sterile water vehicle, 20 min, FIG. 2d
  resting time: only minor effects

## C[C@@H]([C@@H](O)c1ccc(O)cc1)N1CCC(O)(c2ccccc2)CC1 [traxoprodil]
[9]; extensive metabolizers (EM)
  oral bioavailability: 23-62%
[9]; [10]
  adverse effects: no observable adverse effects
  sustained levels in the cerebral spinal fluid: > 200 ng/mL
  sustained levels in the plasma: > 200 ng/mL
[9]; poor metabolizers (PM)
  oral bioavailability: approx. 80%

## Oc1ccc(C2=CCN(C[C@H](O)COCc3ccccc3Cl)CC2)cc1 [MI-17, reference compound]
[1]; 2% DMSO vehicle, FIG. 5c
  immobility times in the TST: dose-dependently increased
[1]; 55% DMSO vehicle in the oxalate form, FIG. 5d
  immobility times in the TST: dose-dependently increased
[8]; beginning at 3 mg/kg but mostly at 10 mg/kg, FIG. 4a
  distance traveled: dramatically decreased
[8]; beginning at 3 mg/kg but mostly at 10 mg/kg, FIG. 4b
  resting time: dramatically increasing
[8]; beginning at 3 mg/kg but mostly at 10 mg/kg, FIG. 4c
  stereotopy time: dramatically decreased
[8]; beginning at 3 mg/kg but mostly at 10 mg/kg, FIG. 4d
  ambulatory time: dramatically decreased
